Data taken from article PMC9974468 (Proceedings of the National Academy of Sciences of the …, 2023).

Tests used:
Assay type in all cases: binding
[1] = biological target: FGFR2K (FGFR2 kinase domain) (Homo sapiens, UniProt P21802, C491A); test: NMR titration, 1H/[…] HMQC chemical shift perturbation
[2] = biological target: FGFR2K WT^0Y (FGFR2 kinase domain) (Homo sapiens, UniProt P21802, C491A/Y466F/Y586L/Y588P/Y656F/Y657F); test: NMR titration, 1H/[…] methyl HMQC chemical shift perturbation
[3] = biological target: FGFR2K V564I^0Y (FGFR2 kinase domain) (Homo sapiens, UniProt P21802, C491A/V564I/Y466F/Y586L/Y588P/Y656F/Y657F); test: as above
[4] = biological target: FGFR2K V564E^0Y (FGFR2 kinase domain) (Homo sapiens, UniProt P21802, C491A/V564E/Y466F/Y586L/Y588P/Y656F/Y657F); test: as above
Sequence of FGFR2K V564E^0Y (FGFR2 kinase domain) (P21802 458-768 Y466F/C491A/V564E/Y586L/Y588P/Y656F/Y657F): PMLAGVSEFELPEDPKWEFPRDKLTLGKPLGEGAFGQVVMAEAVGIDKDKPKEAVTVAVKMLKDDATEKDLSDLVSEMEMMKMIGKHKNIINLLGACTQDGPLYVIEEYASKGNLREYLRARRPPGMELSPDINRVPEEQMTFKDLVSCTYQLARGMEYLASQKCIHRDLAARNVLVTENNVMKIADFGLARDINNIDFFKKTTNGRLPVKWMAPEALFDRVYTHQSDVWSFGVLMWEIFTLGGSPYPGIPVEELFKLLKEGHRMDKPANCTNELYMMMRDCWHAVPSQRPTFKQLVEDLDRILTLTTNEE

Sequence of FGFR2K V564I^0Y (FGFR2 kinase domain) (P21802 458-768 Y466F/C491A/V564I/Y586L/Y588P/Y656F/Y657F): as the sequence (P21802 458-768 Y466F/C491A/V564E/Y586L/Y588P/Y656F/Y657F) above, with E107I counted along it
Sequence of FGFR2K (FGFR2 kinase domain) (P21802 458-768 C491A): as the sequence (P21802 458-768 Y466F/C491A/V564E/Y586L/Y588P/Y656F/Y657F) above, with F9Y, E107V, L129Y, P131Y, F199Y, F200Y counted along it
Sequence of FGFR2K WT^0Y (FGFR2 kinase domain) (P21802 458-768 Y466F/C491A/Y586L/Y588P/Y656F/Y657F): as the sequence (P21802 458-768 Y466F/C491A/V564E/Y586L/Y588P/Y656F/Y657F) above, with E107V counted along it

Kd [2] [µM]	Kd [3] [µM]	Kd [4] [µM]	Structure (SMILES)	Kd [1] [µM]
–	–	–	Nc1ncnc2c1ncn2[C@@H]1O[C@H](COP(=O)(O)OP(=O)(O)CP(=O)(O)O)[C@@H](O)[C@H]1O [AMP-PCP]	2900 ± 100
450 ± 70	280 ± 30	140 ± 20	Nc1ncnc2c1ncn2[C@@H]1O[C@H](COP(=O)(O)OP(=O)(O)OP(=O)(O)O)[C@@H](O)[C@H]1O [ATP]	–
